Results from patent US20100267823A1, “AURONES AS SELECTIVE PDE INHIBITORS AND THEIR USE IN NEUROLOGICAL CONDITIONS AND DISORDERS” (priority 2009, published 2010).

Tests used:
Type in all cases: biochemical
[1] = target: T1, PDE3 protein isolated from human platelets (Homo sapiens, UniProt Q14432); experiment: PDE 3 inhibition assay ([3H]cAMP hydrolysis); conditions: final concentration of the test compound 10 μM; read-out: inhibition compared with the control (PDE 3)
T1 construct: PDE3 protein isolated from human platelets; tissue MDS Pharma Services 152000; host or cells: human platelets
Description: PDE3 protein isolated from human platelets (MDS Pharma Services: cat. No. 152000) was pre-incubated with the respective test compound dissolved in 1% DMSO aqueous solution for 15 minutes at 25° C. in an incubation buffer (50 mM Tris-HCl, pH 7.5, […], […]). After pre-incubation phase 1.01 μM [^3H]cAMP+cAMP where added as substrate to the buffer and the mixture was incubated for additional 20 minutes (25° C.). At the end of incubation phase [^3H] Adenosine concentrations were quantified. Stimulating or inhibiting effects equal or larger than 50% in comparison to vehicle (1% DMSO) control were considered as significant effects.
(§1) At the end of incubation phase [^3H] Adenosine concentrations were quantified. The final concentration of the test compound is 10 μM.

[2] = system: PDE1 protein isolated from bovine brain; experiment: PDE 1 inhibition assay ([3H]cAMP hydrolysis); conditions: final concentration of the test compound 10 μM
Description: (§2) PDE1 protein isolated from bovine brain (MDS Pharma Services: cat. No. 146000) was pre-incubated with the respective test compound dissolved in 1% DMSO aqueous solution for 15 minutes at 25° C. in an incubation buffer (50 mM Tris-HCl, pH 7.5, 5 mM MgCl2, 2 mM CaCl2, 100 U/ml Calmodulin). After pre-incubation phase 1.01 μM [^3H]cAMP+cAMP where added as substrate to the buffer and the mixture was incubated for additional 20 minutes (25° C.).
as §1

[3] = system: PDE4 protein from human leukemic monocyte lymphoma cell line (U937); experiment: PDE 4 inhibition assay ([3H]cAMP hydrolysis); conditions: final concentration of the test compound 10 μM
Description: as §2, with “PDE4” for “PDE1”, “protein” for “protein isolated”, “human leukemic monocyte lymphoma cell line (U937, for example abcam ab3959)” for “bovine brain”, “152000)” for “146000)”, “C.). At the end of incubation phase [^3H] Adenosine concentrations were quantified.” for “C.).”
as §1

T1 sequence (Q14432 whole entry): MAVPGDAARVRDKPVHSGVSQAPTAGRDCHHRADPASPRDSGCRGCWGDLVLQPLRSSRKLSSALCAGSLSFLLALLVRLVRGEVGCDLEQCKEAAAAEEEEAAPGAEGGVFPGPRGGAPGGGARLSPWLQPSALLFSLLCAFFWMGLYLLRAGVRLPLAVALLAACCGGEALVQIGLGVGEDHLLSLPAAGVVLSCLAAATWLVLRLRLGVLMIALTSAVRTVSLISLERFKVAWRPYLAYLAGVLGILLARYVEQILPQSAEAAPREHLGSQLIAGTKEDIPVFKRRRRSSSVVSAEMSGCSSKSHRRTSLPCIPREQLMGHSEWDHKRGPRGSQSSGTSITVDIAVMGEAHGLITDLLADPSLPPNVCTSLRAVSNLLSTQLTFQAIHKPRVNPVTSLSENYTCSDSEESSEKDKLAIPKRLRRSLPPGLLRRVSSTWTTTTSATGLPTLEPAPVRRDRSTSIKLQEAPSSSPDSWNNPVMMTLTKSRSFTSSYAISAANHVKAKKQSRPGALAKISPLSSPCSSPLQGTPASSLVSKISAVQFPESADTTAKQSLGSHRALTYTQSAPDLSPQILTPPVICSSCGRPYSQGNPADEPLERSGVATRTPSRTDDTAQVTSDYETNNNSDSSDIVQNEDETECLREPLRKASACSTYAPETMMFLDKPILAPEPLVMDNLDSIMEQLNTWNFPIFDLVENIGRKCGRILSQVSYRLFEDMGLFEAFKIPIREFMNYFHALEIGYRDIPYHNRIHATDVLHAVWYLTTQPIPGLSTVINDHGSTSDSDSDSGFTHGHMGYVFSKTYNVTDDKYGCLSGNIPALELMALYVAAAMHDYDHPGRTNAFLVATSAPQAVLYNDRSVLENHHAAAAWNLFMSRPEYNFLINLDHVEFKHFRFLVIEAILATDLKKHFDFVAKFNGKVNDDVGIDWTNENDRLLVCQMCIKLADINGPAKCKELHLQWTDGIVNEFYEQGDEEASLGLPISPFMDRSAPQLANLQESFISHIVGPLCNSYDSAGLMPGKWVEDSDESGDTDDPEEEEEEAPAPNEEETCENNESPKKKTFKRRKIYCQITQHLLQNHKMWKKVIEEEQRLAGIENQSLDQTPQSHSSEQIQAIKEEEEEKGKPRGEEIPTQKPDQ

Row | inhibition at 10 µM [1] [%] | SMILES | inhibition compared with the control (PDE 1) [2] [%] | inhibition compared with the control (PDE 4) [3] [%]
1 | 39 | O=C1/C(=C/c2ccc(O)cc2O)Oc2cc(O)cc(O)c21 [SM 29 (3), 2′,4,4′,6-Tetrahydroxy-aurone] | 52 | 29
2 | 74 | O=C1/C(=C/c2ccc(O)cc2)Oc2cc(O)cc(O)c21 [SM 30(3), 4,4′,6-Trihydroxy-aurone] | 52 | 41
